From patent US20210348125A1, “INDUCED STEM MEMORY T CELLS AND METHODS OF USE THEREOF” (Augusta University Research Institute, Inc., priority 2017, published 2021)

Tests used:
[1] = test system: Abl1, AKT3, c-RAF, CamK1, CDK2, c-Met; details: cited from earlier work
pMel-1 CD8^+ T-cells [2] = experiment: In vitro activation of pMel-1 CD8+ T-cells with gp100 peptide with or without MEKi; assay type: cell-based, mouse
Description: Mice and cell culture. 4-6-week-old C57BL/6 mice (wild-type (WT) and pMel-1) from Jackson Laboratory or in-house bred pMel-1 mice with transgenic CD8^+ T-cells having TCR from melanoma-specific gp10025-33 peptide were used as outlined in various experiments. Animals had free access to water and food. All experiments were performed under protocols approved by the Augusta University Georgia Cancer Center Institutional Animal Care and Use Committee (IACUC). Cancer cell lines used in the present study included TC1 (kindly provided by Dr. T-C Wu at Johns Hopkins University) and B16-melanoma (obtained from American Type Culture Collection (ATCC)). […] Primary murine CD8^+ cells were isolated by fluorescence-activated cell sorting (FACS) and in some cases by negative selection using magnetic beads (Miltenyi Biotec) and cultured in RPMI 1640 medium supplemented with 10% FBS, 2 mM glutamine, 10 mM HEPES and 55 μM β-mercaptoethanol. […]
Flow cytometry analyses. […] TMRM (Tetramethylrhodamine, methyl ester) is a cell-permeant, cationic, red-orange fluorescent dye that is readily sequestered by active mitochondria and has been used for estimation of mitochondrial potential was used as described before (Sukumar, M., et al., Cell Metabolism, 23: 63-76 (2016)). […]
Metabolic assays. […] OCR and ECAR were measured with an XFp flux analyzer (Seahorse Bioscience). […]

MEK1 = MEK1 (Homo sapiens, UniProt Q02750); details: cited from earlier work
Chain of MEK1 (Q02750 whole entry, species assumed): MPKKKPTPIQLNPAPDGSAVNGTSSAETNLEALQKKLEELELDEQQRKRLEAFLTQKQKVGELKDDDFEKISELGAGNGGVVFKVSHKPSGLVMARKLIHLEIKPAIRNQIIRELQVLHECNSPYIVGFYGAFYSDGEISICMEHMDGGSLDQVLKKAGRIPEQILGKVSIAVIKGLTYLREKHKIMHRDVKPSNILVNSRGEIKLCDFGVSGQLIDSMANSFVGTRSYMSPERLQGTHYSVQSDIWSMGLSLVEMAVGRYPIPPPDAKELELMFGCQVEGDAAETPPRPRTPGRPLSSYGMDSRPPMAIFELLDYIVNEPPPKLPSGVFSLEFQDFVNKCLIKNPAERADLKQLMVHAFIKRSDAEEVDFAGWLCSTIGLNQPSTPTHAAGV

ERK1 or ERK2 = details: cited from earlier work
pMel-1 CD8^+ T-cells [3] = experiment: Antigen re-challenge (recall response) of activated CD8+ T-cells; assay type: cell-based, mouse; details: re-challenge with gp100 peptide 72 hrs; vs untreated
From the text: FIGS. 4A-4C show FACS analysis of memory phenotype of activated cells (gp100 vs gp100 +MEKi) after antigen (Ag) re-challenge with gp100 peptide for 72 hrs. […]. FIGS. 4M-4O show the scheme of ACT of B16 tumor-bearing mice with respectively activated CD8^+ T-cells as indicated FIG. 4M, estimation of tumor volume FIG. 4N and percent survival FIG. 4O in treated groups. FIGS. 4P-4R show the estimation of numbers of adoptively transferred cells in spleens of treated mice 30 days after ACT as indicated. For the untreated (UT) and control (CTX) groups where the endpoint for euthanasia was reached earlier, the mice were sacrificed and spleens harvested and stored as single-cell suspensions at −80° C. At the end of the study, all samples were stained and processed together for FACS analysis. Representative of two experiments is shown. *P<0.05, **P<0.01, ***P<0.001.
Cell activation, drug treatment and adoptive transfer. FACS-sorted CD8^+ cells from pMel-1 mice were activated with gp100 peptide ([…] (SEQ ID NO:2); 1 μM/10^6 cells/mL) either alone or in combination with MEKi (500-1000 nM) in T-cell medium supplemented with 30 units of IL2 for 48 hours unless otherwise stated. In some experiments, at 48 h cells were washed and re-incubated in IL2-containing medium supplemented with gp100 and/or anti-OX40-Ab for 72 hours. […]

AB1-HA tumor model = details: CTX treatment at Day 9; cited from earlier work

In the case of `Cn1c(=O)c(F)c(Nc2ccc(I)cc2F)c2c(=O)n(C[C@@H](O)CO)cnc21` [TAK-733], the “activity on Abl1, AKT3, c-RAF, CamK1, CDK2, c-Met, etc.” value [1] is listed as “inactive”.
In the case of `CCOC(=O)[C@@]1(CCCCCCOc2ccc(Cl)cc2)CO1` [etomoxir], the “cell proliferation of MEKi-treated pMel-1 CD8+ T-cells in the presence of etomoxir” value (pMel-1 CD8^+ T-cells [2]) was “significant decrease in cell proliferation”.
In the case of `COc1cccc(-c2cc(=O)c3ccccc3o2)c1N` [PD98059], the “MEK-1-mediated activation of MAPK” value (MEK1) is listed as “specifically inhibits” and the “direct inhibition of ERK1 or ERK2” value (ERK1 or ERK2) is listed as “does not directly inhibit”.
For `Cn1cnc2c(F)c(Nc3ccc(Br)cc3Cl)c(C(=O)NOCCO)cc21` [Selumetinib], the “recall response, expansion of terminal effector cells (CD62L-CD44+)” value (pMel-1 CD8^+ T-cells [3]) was “more than 2.5 fold”.
In the case of `CC[C@H]1/C=C/C=C/C[C@@H](C)[C@H](O)[C@@](C)(O)C(=O)[C@@H](C)[C@H](O)[C@@H](C)C(=O)[C@@H](C)[C@H](O)[C@@H](C)/C=C/C(=O)O[C@@H]2[C@H](C)[C@H](CC1)O[C@]1(CC[C@H](C)[C@H](C[C@@H](C)O)O1)[C@H]2C` [oligomycin], the “proliferation of MEKi-treated CD8+ T-cells with oligomycin” value (pMel-1 CD8^+ T-cells [2]; gp100 activated, MEKi-treated cells) was “inhibition of proliferation”.
In the case of `O=P1(N(CCCl)CCCl)NCCCO1` (stereo not shown) [CTX, Cyclophosphamide], the cure rate (AB1-HA tumor model) is listed as 75%.
